{"source": "paper PMC6332040", "about": "“Synthesis, Density Functional Theory (DFT), Urease Inhibition and Antimicrobial Activities of 5-Aryl Thiophenes Bearing Sulphonylacetamide Moieties” (Molecules, 2015)", "key": {"Jack bean urease enzyme": {"target": "Jack bean urease enzyme (Canavalia ensiformis, UniProt P07374)", "sequence (P07374 whole entry, looked up)": "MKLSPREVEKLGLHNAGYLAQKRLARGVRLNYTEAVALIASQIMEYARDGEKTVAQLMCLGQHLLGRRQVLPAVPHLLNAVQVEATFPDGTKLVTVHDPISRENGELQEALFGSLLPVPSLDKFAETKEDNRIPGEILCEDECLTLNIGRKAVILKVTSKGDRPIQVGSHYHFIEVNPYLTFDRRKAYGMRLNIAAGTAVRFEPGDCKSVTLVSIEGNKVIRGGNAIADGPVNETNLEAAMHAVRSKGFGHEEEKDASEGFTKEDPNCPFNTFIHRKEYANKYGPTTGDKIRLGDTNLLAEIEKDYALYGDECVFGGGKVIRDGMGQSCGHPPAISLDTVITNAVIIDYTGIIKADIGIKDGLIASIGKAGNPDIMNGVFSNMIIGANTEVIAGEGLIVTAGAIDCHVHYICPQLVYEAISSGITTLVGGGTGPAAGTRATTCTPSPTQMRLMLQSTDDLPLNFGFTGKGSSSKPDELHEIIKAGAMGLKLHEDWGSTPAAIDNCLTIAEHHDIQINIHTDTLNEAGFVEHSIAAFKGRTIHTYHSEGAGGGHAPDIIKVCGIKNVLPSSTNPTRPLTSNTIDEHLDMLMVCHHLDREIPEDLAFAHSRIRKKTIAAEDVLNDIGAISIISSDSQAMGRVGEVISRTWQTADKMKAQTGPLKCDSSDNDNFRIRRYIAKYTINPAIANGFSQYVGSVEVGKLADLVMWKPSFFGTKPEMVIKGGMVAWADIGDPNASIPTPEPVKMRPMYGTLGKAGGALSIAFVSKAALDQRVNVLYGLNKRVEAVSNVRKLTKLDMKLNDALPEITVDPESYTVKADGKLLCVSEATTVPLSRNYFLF", "experiment": "biochemical", "format": "biochemical", "settings": "pH 6.8", "method": "Urease is an enzyme which converts urea to ammonium carbonate and is used as a diagnostic tool to establish the presence of different pathogens in the urinary and gastrointestinal tract. The percentage activity values of urease enzyme of compounds 4a–d were measured at 50 µg/mL and 250 µg/mL (Table 5), whereas, for compounds 4e–g, the percentage activity values of urease enzyme were measured at 15, 40 and 80 µg/mL, respectively (Table 6).\nJack bean urease enzyme (25 µL) was added in buffer solution (55 µL) containing 100 mM urea to prepare the stock solution. This mixture was then incubated with 5 µL (0.5 mM concentration) of the newly synthesized compounds for 15 min at 30 °C in 96-well plates. Anti-urease activity was resolved by knowing the production of ammonia using the indophenol method. Concisely, in each well, phenol reagent (45 µL, 0.005% w/v sodium nitroprusside and 1% w/v phenol) was added in addition to the alkali reagent (70 µL, NaOH 0.5% w/v and 0.1% NaOCl). After 50 min, the increase in absorbance was measured at 630 nm using a micro plate reader. All reactions were carried out in triplicate to obtained 200 µL final volume. The Softmax pro software was used to obtain the results as change in absorbance per minute. All assays were carried out at a specific pH of 6.8. The following formula was used to calculate the % inhibition: 100 − (OD test well/OD control) × 100(3)\nThiourea was used as standard inhibitor of urease. The EZ-fit kinetic data base was used to determine IC50 values. In the case of colored compounds, sample blanks were also prepared. Absorbance of sample blanks was subtracted from the absorbance of samples to get the corrected absorbance of the samples. Corrected absorbance of sample was used to calculate % age inhibition."}, "[1]": {"settings": "IC50, urease, Table 5 series (4a–d)"}, "[2]": {"settings": "IC50, urease, Table 6 series (4e–g)"}}, "note": "Several values for one entry are separate records, joined by “and”; a condition that tells them apart may be missing. Equal entries are not always repeated."}
{"molecule": "CC(=O)NS(=O)(=O)c1ccc(-c2ccc(C)cc2)s1", "note": "[Compound 4d]", "values": [{"measurement": "IC50", "setting": "Jack bean urease enzyme; [1]", "value": 738, "unit": "µM"}, {"measurement": "Percent urease inhibition", "setting": "Jack bean urease enzyme; urease inhibition at 50 µg/mL", "value": "13.34 ± 0.007", "unit": "%"}, {"measurement": "Percent urease inhibition", "setting": "Jack bean urease enzyme; urease inhibition at 250 µg/mL", "value": "54 ± 0.004", "unit": "%"}, {"measurement": "melting point", "value": "161 to 163", "unit": "°C"}]}
{"molecule": "CC(=O)NS(=O)(=O)c1ccc(-c2ccc(C)s2)s1", "note": "[Compound 4f]", "values": [{"measurement": "IC50", "setting": "Jack bean urease enzyme; [2]", "value": "~56.7 µM and 56.7 µM"}, {"measurement": "Percent urease inhibition", "setting": "Jack bean urease enzyme; urease inhibition at 15 µg/mL", "value": "42.44 ± 0.11", "unit": "%"}, {"measurement": "Percent urease inhibition", "setting": "Jack bean urease enzyme; urease inhibition at 40 µg/mL", "value": "92.12 ± 0.21", "unit": "%"}, {"measurement": "Percent urease inhibition", "setting": "Jack bean urease enzyme; urease inhibition at 80 µg/mL", "value": "94.66 ± 0.11", "unit": "%"}, {"measurement": "melting point", "value": "167 to 168.4", "unit": "°C"}]}
{"molecule": "CC(=O)NS(=O)(=O)c1ccc(-c2cc(C(F)(F)F)cc(C(F)(F)F)c2)s1", "note": "[Compound 4b, N-((5-(3,5-Bis(trifluoromethyl)phenyl)thiophen-2-yl)sulfonyl)acetamide]", "values": [{"measurement": "IC50", "setting": "Jack bean urease enzyme; [1]", "value": "~197 µM and 197 µM"}, {"measurement": "Percent urease inhibition", "setting": "Jack bean urease enzyme; urease inhibition at 50 µg/mL", "value": "29.98 ± 0.034", "unit": "%"}, {"measurement": "Percent urease inhibition", "setting": "Jack bean urease enzyme; urease inhibition at 250 µg/mL", "value": "56 ± 0.006", "unit": "%"}, {"measurement": "melting point", "value": 168, "unit": "°C"}]}
{"molecule": "CC(=O)NS(=O)(=O)c1ccc(-c2cc(C)cc(C)c2)s1", "note": "[Compound 4e]", "values": [{"measurement": "IC50", "setting": "Jack bean urease enzyme; [2]", "value": 57.9, "unit": "µM"}, {"measurement": "Percent urease inhibition", "setting": "Jack bean urease enzyme; urease inhibition at 15 µg/mL", "value": "44.59 ± 0.14", "unit": "%"}, {"measurement": "Percent urease inhibition", "setting": "Jack bean urease enzyme; urease inhibition at 40 µg/mL", "value": "91.21 ± 0.81", "unit": "%"}, {"measurement": "Percent urease inhibition", "setting": "Jack bean urease enzyme; urease inhibition at 80 µg/mL", "value": "92.88 ± 0.14", "unit": "%"}, {"measurement": "melting point", "value": "148 to 149", "unit": "°C"}]}
{"molecule": "CC(=O)NS(=O)(=O)c1ccc(-c2ccccc2)s1", "note": "[Compound 4a]", "values": [{"measurement": "IC50", "setting": "Jack bean urease enzyme; [1]", "value": "~136 µM and 136 µM"}, {"measurement": "Percent urease inhibition", "setting": "Jack bean urease enzyme; urease inhibition at 50 µg/mL", "value": "67.56 ± 0.007", "unit": "%"}, {"measurement": "Percent urease inhibition", "setting": "Jack bean urease enzyme; urease inhibition at 250 µg/mL", "value": "89 ± 0.01", "unit": "%"}, {"measurement": "melting point", "value": "158 to 160", "unit": "°C"}]}
{"molecule": "NC(N)=S", "note": "[Standard, Thiourea, reference compound]", "values": [{"measurement": "Percent urease inhibition", "setting": "Jack bean urease enzyme; urease inhibition at 15 µg/mL", "value": "47.1 ± 0.31", "unit": "%"}, {"measurement": "Percent urease inhibition", "setting": "Jack bean urease enzyme; urease inhibition at 40 µg/mL", "value": "65 ± 0.01", "unit": "%"}, {"measurement": "Percent urease inhibition", "setting": "Jack bean urease enzyme; urease inhibition at 50 µg/mL", "value": "60 ± 0.032", "unit": "%"}, {"measurement": "Percent urease inhibition", "setting": "Jack bean urease enzyme; urease inhibition at 250 µg/mL", "value": "95 ± 0.09", "unit": "%"}, {"measurement": "IC50", "setting": "Jack bean urease enzyme; urease, Table 5 series (4a–d)", "value": "43 ± 0.38", "unit": "µg/mL"}, {"measurement": "IC50", "setting": "Jack bean urease enzyme; urease, Table 6 series (4e–g)", "value": 23.3, "unit": "µg/mL"}]}
{"molecule": "CC(=O)NS(=O)(=O)c1ccc(-c2ccc(Cl)cc2)s1", "note": "[Compound 4g]", "values": [{"measurement": "IC50", "setting": "Jack bean urease enzyme; [2]", "value": 73.8, "unit": "µM"}, {"measurement": "Percent urease inhibition", "setting": "Jack bean urease enzyme; urease inhibition at 15 µg/mL", "value": "46.23 ± 0.11", "unit": "%"}, {"measurement": "Percent urease inhibition", "setting": "Jack bean urease enzyme; urease inhibition at 40 µg/mL", "value": "90.97 ± 0.18", "unit": "%"}, {"measurement": "Percent urease inhibition", "setting": "Jack bean urease enzyme; urease inhibition at 80 µg/mL", "value": "68 ± 0.02", "unit": "%"}, {"measurement": "melting point", "value": "167 to 170", "unit": "°C"}]}
{"molecule": "CC(=O)NS(=O)(=O)c1ccc(-c2ccc(Cl)c(Cl)c2)s1", "note": "[Compound 4c]", "values": [{"measurement": "IC50", "setting": "Jack bean urease enzyme; [1]", "value": "~121 µM and 121 µM"}, {"measurement": "Percent urease inhibition", "setting": "Jack bean urease enzyme; urease inhibition at 50 µg/mL", "value": "54.4 ± 0.002", "unit": "%"}, {"measurement": "Percent urease inhibition", "setting": "Jack bean urease enzyme; urease inhibition at 250 µg/mL", "value": "78 ± 0.003", "unit": "%"}, {"measurement": "melting point", "value": "148 to 150", "unit": "°C"}]}
